In assay [1] the test system is multidrug resistant Plasmodium falciparum clone W-2. Nature of the assay: reversal of the chloroquine resistance in clone W-2. The class given is cell-based. On the procedure:
(§1) Referring to Table 2, the antimalarial activity of compounds of formula 1 were tested using the multidrug resistant Plasmodium falciparum clone W-2. The methods for the growth of the malaria parasite, the testing of drugs for antimalarial effects and the clone are described in Science 242, 1301-1303 1988.

For assay [2] the test system is unchanged. In words: antimalarial activity using multidrug resistant Plasmodium falciparum clone W-2. The conditions noted are these: read-out: IC50, ng/ml CLONE W-2. The class given is cell-based. On the procedure:
as §1

Assay [3] deals with chloroquine-sensitive strain of Plasmodium falciparum (clone D6). Nature of the assay: antimalarial activity against chloroquine-sensitive strain of Plasmodium falciparum (clone D6). It counts as cell-based. On the procedure:
As shown by Table 1, the compounds of the present invention have antimalarial activity on their own without other antimalarial agents. This antimalarial activity can be tested using a number of methods. For example, the compounds of formula 1 listed in Table 1 were tested for antimalarial activity against chloroquine-sensitive strain of Plasmodium falciparum (clone D6).
The methods for the growth of the malaria parasite, the testing of drugs for antimalarial effects and the clone are described in Science 242, 1301-1303 1988.

The next assay deals with Plasmodium falciparum. The conditions noted are these: as described in Science 242, 1301-1303 1988; cited from earlier work.
Assay [4] concerns chloroquine-resistant Plasmodium falciparum. Nature of the assay: synergistic effect with chloroquine, isobologram analysis. The class given is cell-based. The settings on record: chloroquine-resistant P. falciparum, data not shown. On the procedure: Isobologram analysis was carried out according to the method of Martin, et al., (1987) Science 235, 899-901 and Berenbaum, (1978) Journal of Infectious Diseases 137, 122-130 (data not shown).

Where [5] appears, read: 50% reversal of the chloroquine resistance in clone W-2, read-out: Conc. in ng/ml for 50% Reversal of chloroquine.
The mark [6] stands for this setting: D6, read-out: IC50, ng/ml CLONE D6.
Setting [7] is: chloroquine-sensitive clone D6, read-out: IC50, ng/ml CLONE D6.

Each structure is given as a SMILES string. ≈ marks a conversion by molar mass, not a printed value. Where a name gives a salt, the structure may show the parent alone. Read-outs that look alike come from different tables or passages of the source.

The text below walks through data of US5182387A, “Bis-dibenzoazepine compounds” (Merrell Dow Pharmaceuticals Inc., priority 1991, dated 1993).

As to `CN(CCCN1c2ccccc2CCc2ccccc21)CCN(C)CCCN1c2ccccc2CCc2ccccc21` [Example 2, N,N'-Bis[3-(10,11-dihydro-5H-dibenzo[b,f]azepino)propyl]-N,N'-dimethylethanediamine Maleate], the EC50 in assay [1] (setting [5]) was > 200 ng/mL. Also, in assay [2], the IC50 worked out at 1510 ng/mL.

For `CCN(CC)CCCC(C)Nc1ccnc2cc(Cl)ccc12` (centres unmarked) [chloroquine, reference compound], the IC50 came to 7 ng/mL (≈ 0.0219 µM) in assay [3] (setting [6]) and 160 ng/mL (≈ 0.5 µM) in assay [2].

For the compound `CN(CCCCCN(C)CCCN1c2ccccc2CCc2ccccc21)CCCN1c2ccccc2CCc2ccccc21` [Example 5, N,N'-Bis[3-(10,11-dihydro-5H-dibenzo[b,f]azepino)propyl]-N,N'-dimethylpentanediamine Maleate], the EC50 in assay [1] (setting [5]) is 56 ng/mL. The IC50 in assay [2] is 180 ng/mL.

`c1ccc2c(c1)CCc1ccccc1N2CCCN1CCN(CCCN2c3ccccc3CCc3ccccc32)CC1` [Example 9, 1,4-Bis[3-(10,11-dihydro-5H-dibenzo[b,f]azepino)propyl]piperazine Maleate]: the EC50 in assay [1] (setting [5]) is > 200 ng/mL. Besides, the IC50 in assay [2] is > 5000 ng/mL.

Consider `CNCCCN1c2ccccc2CCc2ccccc21` [desipramine, reference compound], for which, in the assay on Plasmodium falciparum, the “utility in reversing chloroquine resistance” value is reported as “shown to have utility in reversing chloroquine resistance”. Also, the EC50 in assay [1] (read-out: Conc. in ng/ml for 50% Reversal of chloroquine) was found to be 35 ng/mL. In addition, the values for the IC50 in assay [3] (setting [6]) and in assay [2] were 15000 ng/mL (≈ 56.3 µM) and 300 ng/mL (≈ 1.13 µM), respectively.

On to `CN(CCCN1c2ccccc2CCc2ccccc21)CC(=O)N(C)CCCN1c2ccccc2CCc2ccccc21` [Example 1, N,N'-Bis[3-(10,11-dihydro-5H-dibenzo[b,f]azepino)propyl]-N,N'-dimethylacetamide Oxalate], for which the EC50 in assay [1] (setting [5]) is > 200 ng/mL. In addition, in assay [2], the IC50 amounted to 3570 ng/mL.

Take `CN(CCCN(C)CCCN1c2ccccc2CCc2ccccc21)CCCN1c2ccccc2CCc2ccccc21` [Example 3, N,N'-Bis[3-(10,11-dihydro-5H-dibenzo[b,f]azepino)propyl]-N,N'-dimethylpropanediamine Maleate]: the EC50 in assay [1] (setting [5]) is 72 ng/mL. In addition, in assay [2], the IC50 was found to be 385 ng/mL.

Turning to `CN(CCCCN(C)CCCN1c2ccccc2CCc2ccccc21)CCCN1c2ccccc2CCc2ccccc21` [Example 4, N,N'-Bis[3-(10,11-dihydro-5H-dibenzo[b,f]azepino)propyl]-N,N'-dimethylbutanediamine Fumarate], in assay [1] (setting [5]), the EC50 was determined as 14 ng/mL. In addition, the IC50 was 240 ng/mL in assay [3] (setting [7]) and 56 ng/mL in assay [2]. The “synergistic effect with antimalarial agents” value in assay [4] is reported as “synergistic effect with chloroquine”.

Take `CN(CCCCCCN(C)CCCN1c2ccccc2CCc2ccccc21)CCCN1c2ccccc2CCc2ccccc21` [Example 6, N,N'-Bis[3-(10,11-dihydro-5H-dibenzo[b,f]azepino)propyl]-N,N'-dimethylhexanediamine Fumarate]: in assay [1] (setting [5]), the EC50 is 52 ng/mL. In addition, the IC50 in assay [3] (setting [7]) stood at 210 ng/mL; in assay [2], 140 ng/mL.

For the compound `c1ccc2c(c1)CCc1ccccc1N2CCCNCCCCNCCCN1c2ccccc2CCc2ccccc21` [Example 8, N,N'-Bis[3-(10,11-dihydro-5H-dibenzo[b,f]azepino)propyl]butanediamine Maleate], in assay [1] (setting [5]), the EC50 is 105 ng/mL. The IC50 in assay [3] (setting [7]) turned out to be 48 ng/mL; in assay [2], 110 ng/mL.
